# Results from paper PMC8141534 (The Journal of Biological Chemistry, 2021).
# Ends that are not written are not given here.
# B1: His-tagged WT Psu (polarity suppression protein, bacteriophage P4 capsid protein) (natural protein)
# chain: MESTALQQAFDTCQNNKAAWLQRKNELAAAEQEYLRLLSGEGRNVSRLDELRNIIEVRKWQVNQAAGRYIRSHEAVQHISIRDRLNDFMQQHGTALAAALAPELMGYSELTAIARNCAIQRATDALREALLSWLAKGEKINYSAQDSDILTTIGFRPDVASVDDSREKFTPAQNMIFSRKSAQLASRQSV
# B2: YaeO: PBS-binding Rho antagonist (protein, UniProt P0AFW8 1-84, looked up)
# Protein rof: MNDTYQPINCDDYDNLELACQHHLMLTLELKDGEKLQAKASDLVSRKNVEYLVVEAAGETRELRLDKITSFSHPEIGTVVVSES
# How the values were obtained:
# Rho = system: Rho; set-up: method as in 2 sources, one per row (each row's own in cited_ref): ref [23] = [23]; PMID 8466900; doi:10.1021/bi00065a007; 23 Zwiefka A. Kohn H. Widger W.R. Transcription termination factor rho: The site of Bicyclomycin inhibition in Escherichia coli Biochemistry 32 1993 3564 3570 8466900 10.1021/bi00065a007 ||| ref [24], [25], [26] = [24]; PMID 17565995; doi:10.1074/jbc.M702010200; 24 Gutiérrez P. Kozlov G. Gabrielli L. Elias D. Osborne M.J. Gallouzi I.E. Gehring K. Solution structure of YaeO, a rho-specific inhibitor of transcription termination J. Biol. Chem. 282 2007 23348 23 || [25]; PMID 21673658; doi:10.1038/emboj.2011.192; 25 Rabhi M. Espéli O. Schwartz A. Cayrol B. Rahmouni A.R. Arluison V. Boudvillain M. The Sm-like RNA chaperone Hfq mediates transcription antitermination at Rho-dependent terminators EMBO J. 30 2011 2 || [26]; PMID 31628950; doi:10.1016/j.jmb.2019.09.019; 26 Pal K. Yadav M. Jain S. Ghosh B. Sen R. Sen U. Vibrio cholerae YaeO is a structural homologue of RNA chaperone Hfq that inhibits rho-dependent transcription termination by dissociating its hexameri; details: cited from earlier work; for Rho antagonism (in words): ref [24], [25], [26]
# P167L Rho [1] = target: P167L Rho (Escherichia coli, UniProt P0AG30, P167L); test: biochemical; format: binding
# [2] = system: Rho-dependent termination (galEP3 reporter); test: in vivo Rho-dependent termination, galEP3 reporter, MacConkey-galactose plates; format: cell-based, Escherichia coli; details: MC4100 galEP3, MacConkey-galactose plates, overexpression
# E. coli Rho [3] = test: Rho-mediated RNA release from stalled (roadblocked) elongation complex; format: biochemical, Escherichia coli; details: for inhibition of Rho-induced RNA release from stalled EC (in words): Fig. 3E; for inhibition of Rho-induced RNA release from stalled EC (in words) / Frac. of RNA released (%): Fig. S4B
# [4] = system: Rho mutants, R144E, R146E, and E148R; format: cell-based, Escherichia coli; details: 0 and 100 μM IPTG
# E. coli Rho [5] = test: single round in vitro Rho-dependent transcription termination, T7A1-trpt′ template; format: biochemical, Escherichia coli
# CD spectrometry = format: physicochemical; details: 10 mM 2-(N-morpholino)ethanesulfonic acid pH 5.5, 190 to 270 nm, 25 °C
# E. coli MG1655 = format: cell-based, Escherichia coli; details: MG1655, pNL150, IPTG induction (100 μM), LB, 37 °C, 6 h; three independent colonies
# [6] = system: Rho-dependent termination (trpt′ and trac terminators, lacZ reporter); format: cell-based, Escherichia coli; details: Fig. 3
# [7] = pH 5.5
# E. coli Rho [8] = format: biochemical, Escherichia coli
# [9] = system: Mycobacterium smegmatis mc^2155; format: cell-based
# isolated Rho–NTD monomer = test: interaction with isolated Rho-NTD monomer; format: binding, Escherichia coli; details: data not shown
# MG1655 gene expression = format: cell-based, Escherichia coli; details: qRT-PCR, relative to empty vector
# WT Rho = WT Rho (Escherichia coli, UniProt P0AG30); format: biochemical
# E134K Rho mutant = format: cell-based, Escherichia coli; details: IPTG induction
# [10] = system: Rho mutants, R66G and Y80C; format: cell-based, Escherichia coli; details: 50 μM IPTG
# [11] = system: Rho proteins from pathogenic bacteria; format: biochemical; details: 35 μM peptide 33, 50 nM Rho, E. coli RNAP stalled EC, trpt′
# Mycobacterium bovis BCG = format: cell-based
# E134K Rho = E134K Rho (Escherichia coli, UniProt P0AG30, E134K); format: biochemical; details: E134K Rho + peptide; λTR1 RNA; exponential decay fit; two to three measurements
# P167L Rho [12] = target: T1, P167L Rho (E. coli, UniProt P0AG30 1-419, P167L); test: pull-down; His-tagged peptides (30 μg peptide 16, 20 μg peptide 33) or His-tagged WT Psu (15 μg) bound to Ni-NTA beads at 4 °C for 12 to 16 h in 100 mM NaH2PO4 pH 8.0, 100 mM NaCl, 10 mM imidazole, 1 mM PMSF; 5 μg non-His-tagged P167L Rho added with 1 mM ATP, 37 °C, 20 min; wash 50 mM imidazole, elution 500 mM imidazole; SDS-Tricine PAGE; details: both partners purified
# T1 construct: also called Rho P167L; non-His-tagged P167L Rho
# [13] = ITC, 1 μM Rho P167L, 50 μM peptide, 1 mM ATP, pH 8.0, 25 °C, average of three experiments ± SD, Fig. 4B
# [14] = Rho + NusG-CTD (5 μM) + ATP, average of three experiments ± SD, Fig. 6A
# [15] = Rho + Poly dC34 (10 μM) + ATP, average of three experiments ± SD, Fig. 6A
# [16] = Rho + PolyC (2 mM Poly(rC)), average of three experiments ± SD, Fig. 6A
# [17] = Rho + ATP, average of three experiments ± SD, Fig. 6A
# [18] = Rho bound to the single-stranded DNA and RNA
molecule,measurement,setting,value
C=C1CCO[C@]2([C@@H](O)[C@@](C)(O)CO)NC(=O)[C@@]1(O)NC2=O [bicyclomycin],Rho inhibition (in words),Rho; ref [23],directly binds near the ATP-binding sites and inhibits Rho functions
MHHHHHHTPAQGMIFSVKVRTGITSVSVKAWLFWRMREDFQPDTD [peptide 16],Kd,P167L Rho [1]; [13],214 ± 113 nM
same,binding affinity and stoichiometry (in words),"P167L Rho [1]; compared with peptide 33, ITC",binds with much weaker affinity and with significantly reduced stoichiometry
same,"colour of colonies, galEP3 reporter (in words)",[2],appearance of red colonies
same,inhibition of Rho-induced RNA release from stalled EC (in words),E. coli Rho [3],significantly inhibited
same,inhibition of Rho-induced RNA release from stalled EC (in words),E. coli Rho [3]; listed as Peptide 16,could efficiently inhibit the RNA release of Rho only when stalled EC was used
same,Frac. of RNA released (%),"E. coli Rho [3]; peptide 25, Rho 50 nM",38 ± 2%
same,Frac. of RNA released (%),"E. coli Rho [3]; peptide 50, Rho 50 nM",22 ± 0.8%
same,Frac. of RNA released (%),"E. coli Rho [3]; peptide 100, Rho 50 nM",13 ± 2%
same,peptide-induced growth defect with Rho mutants (in words),[4],could not prevent the peptide-induced growth defect
same,effect in transcription termination assay with Rho (in words),E. coli Rho [5]; data not shown,much less
same,secondary structure by CD (in words),CD spectrometry,predominantly α-helical
same,growth defect upon expression (in words),E. coli MG1655,severe growth defects
same,in vivo antitermination / Rho inhibitory properties (in words),[6],strong in vivo antitermination of Rho-dependent termination
same,solubility at mildly acidic pH (in words),[7],properly soluble at a mildly acidic pH
Hfq: PBS-binding Rho antagonist,Rho antagonism (in words),Rho,PBS-binding Rho antagonists
MHHHHHHTPAQFIFFRVKVRNWHTSVSVKAWLFWRMREDFQPDTD [peptide 33],Kd,P167L Rho [1]; [13],16.6 ± 3 nM
same,Kd,"P167L Rho [1]; P167L Rho, ITC",17 nM
same,Kd,P167L Rho [1]; [14],26.5 ± 0.3 nM
same,Kd,P167L Rho [1]; [15],255 ± 100 nM
same,Kd,P167L Rho [1]; [16],164 ± 48 nM
same,n,P167L Rho [1]; [17],3.75 ± 0.2
same,ΔG,P167L Rho [1]; [17],-11 ± 0.1 kcal/mol
same,ΔH,P167L Rho [1]; [17],-28 ± 0.9 kcal/mol
same,ΔS,P167L Rho [1]; [17],-57 ± 3 cal/mol.K
same,n,P167L Rho [1]; [14],3.1 ± 0.1
same,ΔG,P167L Rho [1]; [14],-10.3 ± 0.02 kcal/mol
same,ΔH,P167L Rho [1]; [14],-26 ± 3 kcal/mol
same,ΔS,P167L Rho [1]; [14],-52 ± 10 cal/mol.K
same,n,P167L Rho [1]; [15],1.9 ± 0.3
same,ΔG,P167L Rho [1]; [15],-9.1 ± 0.3 kcal/mol
same,ΔH,P167L Rho [1]; [15],-23.7 ± 4 kcal/mol
same,ΔS,P167L Rho [1]; [15],-49.00 ± 13 cal/mol.K
same,n,P167L Rho [1]; [16],2.9 ± 0.1
same,ΔG,P167L Rho [1]; [16],-9.3 ± 0.2 kcal/mol
same,ΔH,P167L Rho [1]; [16],-27.1 ± 3.5 kcal/mol
same,ΔS,P167L Rho [1]; [16],-59.6 ± 12.3 cal/mol.K
same,binding stoichiometry (in words),P167L Rho [1]; [18],also reduced
same,thermodynamic parameters (in words),P167L Rho [1]; [18],not changed significantly
same,affinity for Rho (in words),P167L Rho [1]; in the presence of NusG CTD,not affected significantly
same,reduction of affinity for Rho,P167L Rho [1]; in the presence of polyC,10 fold
same,reduction of affinity for Rho,P167L Rho [1]; in the presence of polydC34,15 fold
same,inhibition of ATPase activity of E. coli Rho (in words),E. coli Rho [8],more efficient than peptide 16 in inhibiting this Rho function
same,growth phenotype upon streaking (in words),[9],very sick phenotype
same,transformants obtained (in words),[9],fewer colonies than those obtained from the transformation with the empty vector
same,interaction with isolated Rho-NTD monomer (in words),isolated Rho–NTD monomer,unable to interact with an isolated Rho–NTD monomer
same,upregulation of tested genes (in words),MG1655 gene expression,higher level of upregulation of these genes than that when its CTDΔ8 derivative was expressed
same,"colour of colonies, galEP3 reporter (in words)",[2],appearance of red colonies
same,inhibition of Rho-induced RNA release from stalled EC (in words),E. coli Rho [3],significantly inhibited
same,inhibition of Rho-induced RNA release from stalled EC (in words),E. coli Rho [3]; listed as Peptide 33,exerted its action at a lower concentration than peptide 16
same,concentration for maximal effects,"E. coli Rho [3]; in general, varied between different lots",≥ 50 µM
same,Frac. of RNA released (%),"E. coli Rho [3]; peptide 25, Rho 50 nM",31± 0.4%
same,Frac. of RNA released (%),"E. coli Rho [3]; peptide 35, Rho 50 nM",16 ± 0.4%
same,Frac. of RNA released (%),"E. coli Rho [3]; peptide 50, Rho 50 nM",13 ± 0.4%
same,peptide-induced growth defect with Rho mutants (in words),[4],could not prevent the peptide-induced growth defect
same,effect on transcription when Rho was absent (in words),E. coli Rho [5]; no Rho,did not have any effect on transcription when Rho was absent
same,secondary structure by CD (in words),CD spectrometry,predominantly α-helical
same,reduction of rate of ATP hydrolysis,WT Rho; WT Rho,~5.5 fold
same,λ (average rate of ATP hydrolysis),"WT Rho; WT Rho + peptide, λTR1 RNA, exponential decay fit, two to three measurements",0.009 min⁻¹
same,growth defect upon expression (in words),E. coli MG1655,severe growth defects
same,in vivo antitermination / Rho inhibitory properties (in words),[6],strong in vivo antitermination of Rho-dependent termination
same,solubility at mildly acidic pH (in words),[7],properly soluble at a mildly acidic pH
same,effect on growth of E134K Rho compared with WT (in words),E134K Rho mutant,less severe effect on the growth of the E134K Rho than its WT counterpart
same,effect on growth of Rho mutants compared with WT (in words),[10],very severe
same,inhibition of RNA release by pathogenic Rho proteins (in words),[11],could inhibit the termination process by all the different Rho proteins
same,growth phenotype upon streaking (in words),Mycobacterium bovis BCG,very sick phenotype
same,λ (average rate of ATP hydrolysis),E134K Rho,0.0155 min⁻¹
B1,binding result,P167L Rho [12],binds
B2,Rho antagonism (in words),Rho,PBS-binding Rho antagonists
